Key:
Swiss-Webster male mice [1] = assay: Mouse Activity and Screen Test Procedure (MAST): screen test (ST); assay type: in vivo; conditions: one hour postinjection
Swiss-Webster male mice [2] = assay: Mouse Activity and Screen Test Procedure (MAST): locomotor activity in actophotometer; assay type: in vivo; conditions: one hour prior to testing
adenosine A2 receptor = biological target: T1, adenosine A2 receptor (Rattus norvegicus, UniProt P30543); assay: Adenosine Receptor Binding - A2 Receptor Affinity (RBA2); conditions: [3H]NECA, rat striatal membranes; read-out: RBA-2
T1 construct: 5 mg original tissue weight of rat weight of rat striatal membranes; tissue Pel-Freez (Rogers, Arkansas); host or cells: rat striatum, membrane preparation
T1 sequence (P30543 whole entry): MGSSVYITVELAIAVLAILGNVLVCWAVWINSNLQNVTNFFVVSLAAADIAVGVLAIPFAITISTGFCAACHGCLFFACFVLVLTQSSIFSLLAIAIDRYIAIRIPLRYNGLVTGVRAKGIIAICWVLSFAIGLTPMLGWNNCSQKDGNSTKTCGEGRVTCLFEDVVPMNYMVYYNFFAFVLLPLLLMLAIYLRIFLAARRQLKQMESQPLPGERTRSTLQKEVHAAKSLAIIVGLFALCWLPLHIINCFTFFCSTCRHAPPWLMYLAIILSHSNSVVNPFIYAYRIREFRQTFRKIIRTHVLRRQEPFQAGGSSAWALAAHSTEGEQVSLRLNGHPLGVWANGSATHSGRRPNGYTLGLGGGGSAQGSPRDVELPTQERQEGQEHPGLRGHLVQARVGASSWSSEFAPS

- Screen test failure (Swiss-Webster male mice [1]; 3 mg/kg intraperitoneally): 0%
- Screen test failure (Swiss-Webster male mice [1]; 10 mg/kg intraperitoneally): 11%
- Screen test failure (Swiss-Webster male mice [1]; 30 mg/kg intraperitoneally): 0%
- IC50 (adenosine A2 receptor): 1270 nM
SMILES: OC[C@H]1O[C@@H](n2cnc3c(NCC4CCCCc5ccccc54)ncnc32)[C@H](O)[C@@H]1O (stereo partly shown) [Example 28, N^6-(1-benzocycloheptyl)methyladenosine]
- Inhibition of mouse locomotor activity (Swiss-Webster male mice [2]; 3 mg/kg intraperitoneally): 35%
- Inhibition of mouse locomotor activity (Swiss-Webster male mice [2]; 10 mg/kg intraperitoneally): 19%
- Inhibition of mouse locomotor activity (Swiss-Webster male mice [2]; 30 mg/kg intraperitoneally): 59%

— patent publication EP0179667B1, “N6-substituted adenosines” (priority 1984, dated 1986)
